The text below walks through data of patent US9193731B2, “Antimicrobial compounds and methods of making and using the same” (Melinta Therapeutics, Inc., priority 2009, dated 2015).

What is called MIC is the smallest concentration in the dilution series that meets the test's criterion for growth inhibition.

The assay deals with Escherichia coli strain ATCC25922. Description: standard microdilution assay to determine minimum inhibitory concentrations (MICs). The class given is cell-based. The following applies: for E. coli ATCC25922 MIC: Escherichia coli strain ATCC25922, microdilution; for MIC: Escherichia coli, ATCC25922, Escherichia coli strain ATCC25922, microdilution, read-out: E. coli ATCC25922 MIC. The gist of the method:
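Broth microdilution MIC against E. coli ATCC25922, following CLSI protocols, typically in a 100 microliter final volume. Results reported as +/− relative to a 16 micrograms/ml cutoff.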
On the technique in general: Broth dilution looks for growth in wells or tubes with falling amounts of substance.

In the case of `N=C(N)NCCCNCc1ccc(-n2cc3cc(-c4cc(C(=O)Nc5cccc(F)c5)cc(N5CCNCC5)c4)[nH]c3nc2=O)cc1` [Compound 982], the “E. coli ATCC25922 MIC” value was “+ (a “+” indicates that the compound has an MIC value of 16 micrograms/ml or less)”. Turning to `N=C(N)N1CCC(NCCCS(=O)(=O)c2ccc(-c3cc4cn(-c5ccc(CNCCCN)cc5)c(=O)nc4[nH]3)cc2)C1` (centres unmarked) [Compound 1292], the “E. coli ATCC25922 MIC” value is “+ (a “+” indicates that the compound has an MIC value of 16 micrograms/ml or less)”. Turning to `NCCCNC(=O)CCn1cc2cc(-c3ccc(S(=O)(=O)N[C@@H]4CCCNC4)cc3)[nH]c2nc1=O` [Compound 1287], the MIC was greater than 16 µg/mL.

In the case of `N=C(N)NCCCNCc1ccc(-n2cc3cc(-c4ccc(S(=O)(=O)N(CC5COCCO5)C5CCCNC5)cc4)[nH]c3nc2=O)cc1` (centres unmarked) [Compound 851], the “E. coli ATCC25922 MIC” value is listed as “+ (a “+” indicates that the compound has an MIC value of 16 micrograms/ml or less)”. As to `NCCCNCc1ccc(-n2cc3cc(CN4CCOC4=O)[nH]c3nc2=O)cc1` [Compound 289], the minimal inhibitory concentration (MIC) is greater than 16 µg/mL. Take `N=C(N)NCCCNCc1ccc(-n2cc3cc(-c4cccc(OCCCN)c4)[nH]c3nc2=O)cc1F` [Compound 1263]: the minimal inhibitory concentration (MIC) was less than 16 µg/mL.

Consider `NCCOc1cccc(-c2cc3cn(-c4ccc(CN)cc4)c(=O)nc3[nH]2)c1` [Compound 1144], for which the MIC is greater than 16 µg/mL.

`NC(N)=NCCCNCc1ccc(-n2cc3cc(CCS(=O)(=O)CCNC4CCNCC4)[nH]c3nc2=O)cc1` [Compound 1251]: the “E. coli ATCC25922 MIC” value is recorded as “+ (a “+” indicates that the compound has an MIC value of 16 micrograms/ml or less)”.

As to `CS(=O)(=O)c1ccc(-c2cn3cc(-c4ccc(CNCCCN)cc4)c(=O)nc3[nH]2)cc1` [Compound 631], the MIC is greater than 16 µg/mL. Same read-out and setting: next, `CNCc1ccc(-n2cc3cc(-c4ccc(S(=O)(=O)N(CCCn5cccn5)C5CCNCC5)cc4)[nH]c3nc2=O)cc1` [Compound 1020]: greater than 16 µg/mL; `NCc1ccc(-n2cc3cc(-c4ccc(S(=O)(=O)N(CCCN5CCc6ccccc65)C5CCNCC5)cc4)[nH]c3nc2=O)cc1` [Compound 1067]: greater than 16 µg/mL.

In the case of `N=C(N)NCCCNCc1ccc(-n2cc3cc(-c4ccc(S(=O)(=O)N(CC5CCOCC5)C5CCCNC5)cc4)[nH]c3nc2=O)cc1` (single isomer, unassigned) [Compound 844], the “E. coli ATCC25922 MIC” value is “+ (a “+” indicates that the compound has an MIC value of 16 micrograms/ml or less)”. Same read-out and setting: in the case of `CN(CCc1ccccn1)C(=O)c1cc(-c2cc3cn(-c4ccc(CNCCCNC(=N)N)cc4)c(=O)nc3[nH]2)cc(N2CCNCC2)c1` [Compound 964] it was “− (a “−” indicates that the compound has an MIC value greater than 16 micrograms/ml)”.

`NCCCNCc1ccc(-c2cn3cc(-c4ccc(C(=O)NC5CCOCC5)cc4)[nH]c3nc2=O)cc1` [Compound 799]: the MIC is greater than 16 µg/mL. With `N=C(N)NC[C@H](N)C(=O)NCc1ccc(-n2cc3cc(-c4ccc(S(=O)(=O)NC5CCNCC5)cc4)[nH]c3nc2=O)cc1` [Compound 1228], the “E. coli ATCC25922 MIC” value is recorded as “+ (a “+” indicates that the compound has an MIC value of 16 micrograms/ml or less)”.

With `N=C(N)NCCCNCc1ccc(-c2cn3cc(-c4ccc(C(=O)N5CCC(O)C5)cc4)[nH]c3nc2=O)cc1` (centres unmarked) [Compound 653], the minimum inhibitory concentration (MIC) was greater than 16 µg/mL. Turning to `CN(Cc1ccccc1)Cc1cc2cn(-c3ccc(CNCCCNC(=N)N)cc3)c(=O)nc2[nH]1` [Compound 906], the minimal inhibitory concentration (MIC) was greater than 16 µg/mL. As for `CN(Cc1ccccc1)C(=O)c1cc(-c2cc3cn(-c4ccc(CNCCCNC(=N)N)cc4)c(=O)nc3[nH]2)cc(N2CCNCC2)c1` [Compound 989], the “E. coli ATCC25922 MIC” value is on record as “+ (a “+” indicates that the compound has an MIC value of 16 micrograms/ml or less)”.

`NCc1ccc(-n2cc3cc(C4C[C@@H](N)[C@@H](CO)O4)[nH]c3nc2=O)cc1` (some centres unmarked) [Compound 1301]: the minimal inhibitory concentration (MIC) is greater than 16 µg/mL. Turning to `NCc1ccc(-n2cc3cc(-c4ccccc4OCCCO)[nH]c3nc2=O)cc1` [Compound 1105], the minimal inhibitory concentration (MIC) was greater than 16 µg/mL. Consider `Cc1cc(-n2cc3cc(-c4ccc(S(=O)(=O)NC5CCCNC5)cc4)[nH]c3nc2=O)ccc1CNCCCNC(=N)N` (centres unmarked) [Compound 1309], for which the “E. coli ATCC25922 MIC” value is given as “+ (a “+” indicates that the compound has an MIC value of 16 micrograms/ml or less)”. With `N=C(N)NCCCNC(=O)c1ccc(-n2cc3cc(-c4ccc(S(=O)(=O)N(CCOc5ccc(F)cc5)C5CCNCC5)cc4)[nH]c3nc2=O)cc1` [Compound 1093], the “E. coli ATCC25922 MIC” value is listed as “+ (a “+” indicates that the compound has an MIC value of 16 micrograms/ml or less)”. On to `CS(=O)(=O)N1CCN(C(=O)c2ccc(-c3cn4cc(-c5ccc(CNCCCN)cc5)c(=O)nc4[nH]3)cc2)CC1` [Compound 701], for which the MIC was greater than 16 µg/mL. `N=C(N)NCCCNCc1ccc(-n2cc3cc(-c4cccc(N5CCNCC5)c4)[nH]c3nc2=O)cc1` [Compound 655]: the MIC is less than 16 µg/mL. `NCCCCN1CCC(n2cc3cc(-c4ccc(F)cc4)[nH]c3nc2=O)C1` (centres unmarked) [Compound 559]: the MIC was greater than 16 µg/mL. For `CSCc1cc(OCC(F)CN)cc(-c2cc3cn(-c4ccc(CNCCCNC(=N)N)cc4)c(=O)nc3[nH]2)c1` (centres unmarked) [Compound 2049a], the “E. coli ATCC25922 MIC” value is “+ (a “+” indicates that the compound has an MIC value of 16 micrograms/ml or less)”. Consider `CNCc1ccc(-n2cc3cc(-c4ccc(S(=O)(=O)N(CCCc5cccc(OC)c5)C5CCNCC5)cc4)[nH]c3nc2=O)cc1` [Compound 1034], for which the MIC is greater than 16 µg/mL. Consider `NCCCNCc1ccc(-n2cc3cc(CCS(=O)(=O)NC4CCNCC4)[nH]c3nc2=O)cc1` [Compound 881], for which the MIC was less than 16 µg/mL.

On to `N=C(N)CCCOc1cccc(-c2cc3cn(-c4ccc(CNCCCNC(=N)N)cc4)c(=O)nc3[nH]2)c1` [Compound 1191], for which the MIC is greater than 16 µg/mL.

With `CN(CCO)C(=O)c1ccc(-c2cn3cc(-c4ccc(CNCCCN)cc4)c(=O)nc3[nH]2)cc1` [Compound 771], the MIC was less than 16 µg/mL. Consider `NC(=O)c1ccc(-n2cc3cc(-c4ccc(S(=O)(=O)N(CCCn5ccc(C(F)(F)F)n5)C5CCNCC5)cc4)[nH]c3nc2=O)cc1` [Compound 1116], for which the “E. coli ATCC25922 MIC” value is on record as “− (a “−” indicates that the compound has an MIC value greater than 16 micrograms/ml)”.

Take `NCCCNCc1ccc(-n2cc3cc(-c4ccccc4OC(F)(F)F)[nH]c3nc2=O)cc1` [Compound 309]: the MIC was greater than 16 µg/mL. As to `NCCCN1CCC(c2cn3cc(-c4ccc(F)cc4)[nH]c3nc2=O)CC1` [Compound 567], the minimal inhibitory concentration (MIC) was greater than 16 µg/mL. Turning to `N=C(N)NCCCNCc1ccc(-n2cc3cc(-c4ccc(C(NC5CCNCC5)C(F)(F)F)cc4)[nH]c3nc2=O)cc1` (centres unmarked) [Compound 944], the “E. coli ATCC25922 MIC” value is given as “+ (a “+” indicates that the compound has an MIC value of 16 micrograms/ml or less)”.

On to `NC(N)=NCCCNCc1ccc(-n2cc3cc(-c4cccc(S(=O)(=O)N(CCn5cccc5)C5CCNCC5)c4)[nH]c3nc2=O)cc1` [Compound 1227], for which the “E. coli ATCC25922 MIC” value is “+ (a “+” indicates that the compound has an MIC value of 16 micrograms/ml or less)”. As for `NCc1ccc(-n2cc3cc(-c4ccc(S(=O)(=O)N(Cc5ccc(Cl)c(Cl)c5)C5CCNCC5)cc4)[nH]c3nc2=O)cc1` [Compound 945], the minimal inhibitory concentration (MIC) is greater than 16 µg/mL.

Regarding `N=C(N)NCCCNCc1ccc(-n2cc3cc(-c4ccc(S(=O)(=O)N(CC5CN(Cc6ccccc6)CCO5)C5CCNCC5)cc4)[nH]c3nc2=O)cc1` (centres unmarked) [Compound 988], the “E. coli ATCC25922 MIC” value is listed as “+ (a “+” indicates that the compound has an MIC value of 16 micrograms/ml or less)”. In the case of `NCc1ccc(-n2cc3cc(-c4ccc(S(=O)(=O)NC5CCNCC5)c(Cl)c4)[nH]c3nc2=O)cc1` [Compound 245], the MIC is greater than 16 µg/mL. The same measure, in the same setting: in the case of `N=C(N)NCCCNCc1ccc(-n2cc3cc(CCS(=O)(=O)NC4CCNCC4)[nH]c3nc2=O)cc1` [Compound 926] it was less than 16 µg/mL. As for `NCCCNCc1ccc(-n2cc3cc(-c4ccc(S(=O)(=O)NC5CCCNC5)cc4)[nH]c3nc2=O)cc1` (centres unmarked) [Compound 807], the “E. coli ATCC25922 MIC” value was “+ (a “+” indicates that the compound has an MIC value of 16 micrograms/ml or less)”. On to `NCCCNCc1ccc(-n2cc3cc(-c4cc(F)c(F)c(F)c4)[nH]c3nc2=O)cc1` [Compound 306], for which the MIC is greater than 16 µg/mL.

Take `N=C(N)NCCCNCc1ccc(-n2cc3cc(C[C@@H](CO)NC(=O)c4ccccc4)[nH]c3nc2=O)cc1` [Compound 1231]: the minimal inhibitory concentration (MIC) is greater than 16 µg/mL. On the same count and under the same terms, in the case of `CN(CCCOc1cccc(-c2cc3cn(-c4ccc(CNCCCNC(=N)N)cc4)c(=O)nc3[nH]2)c1)C(=O)c1ccccc1` [Compound 1204] it was greater than 16 µg/mL. Turning to `NCCCNCc1ccc(-c2cn3cc(-c4ccc(C(=O)N5CCN(CCF)CC5)cc4)[nH]c3nc2=O)cc1` [Compound 825], the “E. coli ATCC25922 MIC” value is listed as “− (a “−” indicates that the compound has an MIC value greater than 16 micrograms/ml)”.

In the case of `CNCc1ccc(-n2cc3cc(-c4ccc(S(=O)(=O)N(CCCc5ccc(O)cc5)C5CCNCC5)cc4)[nH]c3nc2=O)cc1` [Compound 1064], the “E. coli ATCC25922 MIC” value is listed as “− (a “−” indicates that the compound has an MIC value greater than 16 micrograms/ml)”. Consider `NCCCCN1CCC(n2cc3c(nc2=O)[nH]c2ccccc23)C1` (centres unmarked) [Compound 542], for which the minimal inhibitory concentration (MIC) was greater than 16 µg/mL. For `N=C(N)NCCCNCc1ccc(-n2cc3cc(-c4cc(OCCCN)cc(N5CCNCC5)c4)[nH]c3nc2=O)cc1` [Compound 2010a], the “E. coli ATCC25922 MIC” value is “+ (a “+” indicates that the compound has an MIC value of 16 micrograms/ml or less)”. Consider `N=C(N)NCCCNCc1ccc(-n2cc3cc([C@@H]4C[C@@H](N)[C@@H](CO)O4)[nH]c3nc2=O)cc1` [Compound 1267], for which the minimum inhibitory concentration (MIC) is less than 16 µg/mL. As to `N=C(N)NCCCNCc1ccc(-n2cc3cc(-c4ccc(S(=O)(=O)N(Cc5ccc(Cl)c(Cl)c5)C5CCOCC5)cc4)[nH]c3nc2=O)cc1` [Compound 898], the “E. coli ATCC25922 MIC” value is listed as “− (a “−” indicates that the compound has an MIC value greater than 16 micrograms/ml)”.

In the case of `COc1cc(-n2cc3cc(-c4cccc(OCC(C)(C)CN)c4)[nH]c3nc2=O)ccc1CNCCCNC(=N)N` [Compound 1328], the “E. coli ATCC25922 MIC” value is recorded as “+ (a “+” indicates that the compound has an MIC value of 16 micrograms/ml or less)”.
